Data on 8 compounds can be found in ChEMBL document CHEMBL1124138, “Synthesis and analgesic activity of pemedolac (cis-1-ethyl-1,3,4,9-tetrahydro-4-(phenylmethyl)pyrano[3,4-b]ind ole-1- acetic acid)” (1988).

Type in all cases: functional
Assay [1] relates to Mus musculus. Nature of the assay: Percentage inhibition of writhing in mouse at 25 mg/kg (PBQ writhing test).
Assay [2] is filed under the species Rattus norvegicus. Nature of the assay: Dose causing an analgesic effect in 50% of rats (Randall-Selitto assay).
The species entered for assay [3] is Mus musculus. Description: Dose causing 50% inhibition of writhing in mouse (PBQ writhing test). (In writhing tests, fewer writhes than in controls are read as antinociception.)
In assay [4] the test system is Mus musculus. Nature of the assay: Percentage inhibition of writhing in mouse at 30 mg/kg (PBQ writhing test).
The subject of assay [5] is Rattus norvegicus. Nature of the assay: Percentage analgesic effect of rats at 10 mg/kg (Randall-Selitto assay).
A short description of assay [6]: Ratio of acute ulcerogenesis UD50/Randall-Selitto ED50.
Assay [7] can be described thus: Ratio of carrageenan paw edema ED50/Randall-Sellitto ED50. For orientation: Carrageenan injected into the paw causes an acute inflammation.
For assay [8], the species on record is Rattus norvegicus. Description: Dose at which 50% of the rats had a positive gastrointestinal irritation / ulceration on a quantal all-or-none basis.
Assay [9] concerns Rattus norvegicus. Nature of the assay: Dose causing 50% inhibition of edema by carrageenan paw edema assay.
The subject of assay [10] is Rattus norvegicus. Description: Dose causing 50% inhibition of edema by carrageenan paw edema assay.
Assay [11] is filed under the species Rattus norvegicus. Description: Dose at which 50% of the rats had a positive gastrointestinal irritation / ulceration on a quantal all-or-none basis.
Setting [12] is: Rattus norvegicus, read-out: ED50.

As a reminder, the inhibition in vivo is the percentage by which the read-out fell short of the control. Lower therefore signals a weak effect. In assay [1], `CC[C@@]1(CC(=O)O)OC[C@@H](Cc2ccccc2)c2c1[nH]c1ccccc21` registered an inhibition in vivo at 25 mg/kg of 19%.
A word on the ED50: it is the dose at which the effect has come halfway, by size or by number of responders. For the compound `CCC1(CC(=O)O)OCC(Cc2ccccc2)c2c1[nH]c1ccccc21` (single isomer, unassigned; (+)) [PEMEDOLAC], the 50% effective dose (ED50) amounted to 0.04 mg/kg in assay [2] and 1.8 mg/kg in [3].
On to `CCC1(CC(=O)O)OCC(Cc2ccccc2)c2c1[nH]c1ccccc21` (single isomer, unassigned; (-)) [PEMEDOLAC], for which testing at 30 mg/kg in assay [4] gave an inhibition in vivo of 15%. Besides, in assay [5], the Effect is 40%.
`CCC1(CC(=O)O)OCC(Cc2ccccc2)c2c1[nH]c1ccccc21` (stereo in doubt): the Safety index in [6] was over 35000. In addition, the Ratio in assay [7] is 33000.
`CCC1(CC(=O)O)OCC(Cc2ccccc2)c2c1[nH]c1ccccc21` (stereo in doubt) [PEMEDOLAC]: the ED50 was 0.003 mg/kg in assay [2]; 2 mg/kg in [3] (Mus musculus, read-out: ED50); about 100 mg/kg in [9]. The compound also gave a UD50 in assay [8] of 107 mg/kg.
For the compound `CCc1cccc2c3c([nH]c12)C(CC)(CC(=O)O)OCC3` (stereo not drawn) [ETODOLAC], the 50% effective dose (ED50) in assay [2] (setting [12]) was determined as 4.5 mg/kg; in [9], 23 mg/kg. The Safety index in assay [6] is 13. This compound displayed a UD50 in assay [8] of 58 mg/kg. Further, the Ratio in [7] turned out to be 5.1.
For the compound `CC(C)Cc1ccc(C(C)C(=O)O)cc1` (stereo not drawn) [IBUPROFEN], the 50% effective dose (ED50) is 64.5 mg/kg in assay [2] (setting [12]); 21 mg/kg in assay [10]; 32.4 mg/kg in assay [3] (Mus musculus, read-out: ED50). In addition, the Safety index in [6] turned out to be 2.3. This compound also showed a UD50 in assay [11] of 150 mg/kg. For the same compound, the Ratio in assay [7] came to 0.3.
Consider `CN1C(C(=O)Nc2ccccn2)=C(O)c2ccccc2S1(=O)=O` [PIROXICAM], for which the ED50 was 0.35 mg/kg in [2] (setting [12]); 1.3 mg/kg in assay [10]; 3.4 mg/kg in assay [3] (Mus musculus, read-out: ED50). The Safety index in assay [6] worked out at 17. In assay [11], this compound displayed a UD50 of 6 mg/kg. In addition, the Ratio in assay [7] is 3.7.
